{"source": "patent US9078874B2", "about": "“Composition and method for treating cognitive impairments in down syndrom subjects” (Centre National De La Recherche Scientifique—CNRS, priority 2009, dated 2015)", "key": {"[1]": {"test_system": "cognitively-normal wildtype rodents", "conditions": "cited from earlier work"}, "Ts65Dn mice": {"test_system": "Ts65Dn mice", "conditions": "mouse, in vivo; cited from earlier work"}, "euploid and Ts65Dn mice": {"test_system": "euploid and Ts65Dn mice", "test": "Pro-convulsant effects after pentylenetetrazol (45 mg/kg)", "format": "in vivo", "conditions": "sub-convulsant dose 45 mg/kg i.p.", "procedure": "For testing the pro-convulsant effects of α5IA, a sub-convulsant dose of pentylenetetrazole (45 mg/kg i.p.) that induces myoclonic convulsions in about 50% of mice was injected i.p. 20 min after injection of α5IA (50 mg/kg) or placebo.\nThe proconvulsant action of the α5IA was measured after injection of a subconvulsive dose of pentylenetetrazole. Mice were injected with either vehicle or the α5IA (50 mg/kg i.p) and 20 min later they received an intraperitoneal injection of 45 mg/kg of pentylenetetrazole. […] Six to 7 mice were used for each condition. The latency to the first myoclonic jerk episode and the convulsion grade were recorded during a 1200-s period of observation. Four grades were empirically determined: Grade 0: no effect; grade 1: tail up and curved; grade 2: reversed tail and convulsive shivers; grade 3: myoclonic convulsions.\nWe then tested the proconvulsant effect of α5IA by injecting it (50 mg/kg) 20 min before a sub-convulsant dose of pentylenetetrazol (45 mg/kg) that induces myoclonic convulsions in about 50% of mice."}, "[2]": {"test_system": "children with Down syndrome", "conditions": "7 to 13 year-old children with Down syndrome; even at doses associated with adverse effects; cited from earlier work"}, "[3]": {"conditions": "in vivo; cited from earlier work"}}, "data": [{"smiles": "CCOC(=O)c1ncn2c1[C@@H]1CCCN1C(=O)c1cc(OC)ccc1-2", "note": "[L-655,708]", "values": [{"measurement": "acquisition in the reference memory water maze test", "setting": "[1]", "value": "can facilitate acquisition"}]}, {"smiles": "C1CCc2nnnn2CC1", "note": "[pentylenetetrazole]", "values": [{"measurement": "cognition enhancement effect in treated mice compared to control non-treated mice", "setting": "Ts65Dn mice", "value": "did not show a cognition enhancement effect"}, {"measurement": "acquisition in the reference memory water maze test", "setting": "[1]", "value": "can facilitate acquisition"}, {"measurement": "mice with myoclonic convulsions", "setting": "euploid and Ts65Dn mice", "value": "about 50 % of mice"}]}, {"smiles": "NC(=O)CN1CCCC1=O", "note": "[piracetam]", "values": [{"measurement": "cognitive and behavioural measures", "setting": "[2]", "value": "neither cognitive nor behavioural measures demonstrated improvement"}]}, {"smiles": "COC(=O)c1cc2c(cn1)[nH]c1ccccc12", "note": "[β-CCM]", "values": [{"measurement": "convulsant liability", "setting": "[3]", "value": "proconvulsant or convulsant"}, {"measurement": "spatial learning in the Morris watermaze", "setting": "[3]", "value": "enhanced spatial learning"}]}]}
